Source: PubChem BioAssay (NCI)
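Following 48 hours of exposure in 96-well plates, responses at five concentrations were used to interpolate endpoints linearly. TGI: concentration producing complete growth inhibition.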

Legend:
Test in all cases: NCI-60 cell line screen, 48 h
786-0 renal = test system: 786-0 renal
A498 renal = test system: A498 renal
A549 NSCLC = test system: A549 NSCLC
ACHN renal = test system: ACHN renal
BT-549 breast = test system: BT-549 breast
CAKI-1 renal = test system: CAKI-1 renal
CCRF-CEM leukemia = test system: CCRF-CEM leukemia
COLO 205 colon = test system: COLO 205 colon
DU-145 prostate = test system: DU-145 prostate
EKVX NSCLC = test system: EKVX NSCLC
HCC-2998 colon = test system: HCC-2998 colon
HCT-116 colon = test system: HCT-116 colon
HCT-15 colon = test system: HCT-15 colon
HL-60(TB) leukemia = test system: HL-60(TB) leukemia
HOP-62 NSCLC = test system: HOP-62 NSCLC
HOP-92 NSCLC = test system: HOP-92 NSCLC
HS 578T breast = test system: HS 578T breast
HT29 colon = test system: HT29 colon
IGROV1 ovarian = test system: IGROV1 ovarian
K-562 leukemia = test system: K-562 leukemia
KM12 colon = test system: KM12 colon
LOX IMVI melanoma = test system: LOX IMVI melanoma
M14 melanoma = test system: M14 melanoma
MALME-3M melanoma = test system: MALME-3M melanoma
MCF7 breast = test system: MCF7 breast
MDA-MB-231 breast = test system: MDA-MB-231 breast
MDA-MB-435 = test system: MDA-MB-435
MDA-N = test system: MDA-N
MOLT-4 leukemia = test system: MOLT-4 leukemia
NCI-H226 lung = test system: NCI-H226 lung
NCI-H23 lung = test system: NCI-H23 lung
NCI-H460 lung = test system: NCI-H460 lung
NCI-H522 lung = test system: NCI-H522 lung
OVCAR-3 ovarian = test system: OVCAR-3 ovarian
OVCAR-4 ovarian = test system: OVCAR-4 ovarian
OVCAR-5 ovarian = test system: OVCAR-5 ovarian
OVCAR-8 ovarian = test system: OVCAR-8 ovarian
PC-3 prostate = test system: PC-3 prostate
RPMI-8226 leukemia = test system: RPMI-8226 leukemia
RXF 393 renal = test system: RXF 393 renal
SF-268 CNS = test system: SF-268 CNS
SF-295 CNS = test system: SF-295 CNS
SF-539 CNS = test system: SF-539 CNS
SK-MEL-2 melanoma = test system: SK-MEL-2 melanoma
SK-MEL-28 melanoma = test system: SK-MEL-28 melanoma
SK-MEL-5 melanoma = test system: SK-MEL-5 melanoma
SK-OV-3 ovarian = test system: SK-OV-3 ovarian
SN12C renal = test system: SN12C renal
SNB-19 CNS = test system: SNB-19 CNS
SNB-75 CNS = test system: SNB-75 CNS
SR leukemia = test system: SR leukemia
SW-620 colon = test system: SW-620 colon
T-47D breast = test system: T-47D breast
TK-10 renal = test system: TK-10 renal
U251 CNS = test system: U251 CNS
UACC-257 melanoma = test system: UACC-257 melanoma
UACC-62 melanoma = test system: UACC-62 melanoma
UO-31 renal = test system: UO-31 renal

Measured: TGI

CC(C)c1ccc(/C=C2\N=C(c3ccc([N+](=O)[O-])cc3)OC2=O)cc1
not listed: UO-31 renal
> 100 µM: all other assays above

CN1CCN(C(=S)N(C(=O)c2ccco2)C2CCCCC2)CC1
not listed: A498 renal | CAKI-1 renal | EKVX NSCLC | HCT-116 colon | HL-60(TB) leukemia | HOP-62 NSCLC | MOLT-4 leukemia | PC-3 prostate | SF-539 CNS | SK-OV-3 ovarian
> 100 µM: all other assays above

CSc1ncnc2c1cnn2Cc1cn(CCCCO)nn1
not listed: HL-60(TB) leukemia
> 100 µM: all other assays above
